Experiment [1] concerns the target T1, ObgKP (Klebsiella pneumoniae, UniProt A6TEK2).
T1 construct: gene obg; residues 1-392, N-terminal 6xHis tag and TEV site (modified pCDF-Duet1, pKV1414), expressed in E. coli BL21(DE3); tag not reported cut
The experiment in a line: mant-nucleotide fluorescence increase. The conditions noted are these: 2 μM protein, labelled compound. In kind it is binding.

The target in experiment [2] is T2, ObgGC (Neisseria gonorrhoeae, UniProt Q5F5D9).
T2 construct: gene obg; full-length with C-terminal 6xHis tag, expressed in E. coli BL21(DE3), IMAC and size exclusion; tag not reported cut
The experiment in a line: mant-nucleotide fluorescence increase. The class given is binding. The conditions noted are these: 2 μM protein, labelled compound.

Where [3] appears, read: 0.3 μM mant-GTP, 5 mM MgCl2, 37 °C.

T2 sequence (Q5F5D9 whole entry): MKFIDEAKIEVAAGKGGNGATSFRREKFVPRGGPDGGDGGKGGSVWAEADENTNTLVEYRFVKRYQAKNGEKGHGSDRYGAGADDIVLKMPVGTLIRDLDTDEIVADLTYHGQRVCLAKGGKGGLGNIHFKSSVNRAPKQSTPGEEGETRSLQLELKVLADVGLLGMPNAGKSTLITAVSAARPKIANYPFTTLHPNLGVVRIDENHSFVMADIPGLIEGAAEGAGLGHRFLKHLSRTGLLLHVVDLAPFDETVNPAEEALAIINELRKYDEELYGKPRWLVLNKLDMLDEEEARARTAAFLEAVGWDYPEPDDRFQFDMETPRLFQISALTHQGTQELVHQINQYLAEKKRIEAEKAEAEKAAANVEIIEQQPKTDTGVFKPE
T1 sequence (A6TEK2 whole entry, the tested form may be a part): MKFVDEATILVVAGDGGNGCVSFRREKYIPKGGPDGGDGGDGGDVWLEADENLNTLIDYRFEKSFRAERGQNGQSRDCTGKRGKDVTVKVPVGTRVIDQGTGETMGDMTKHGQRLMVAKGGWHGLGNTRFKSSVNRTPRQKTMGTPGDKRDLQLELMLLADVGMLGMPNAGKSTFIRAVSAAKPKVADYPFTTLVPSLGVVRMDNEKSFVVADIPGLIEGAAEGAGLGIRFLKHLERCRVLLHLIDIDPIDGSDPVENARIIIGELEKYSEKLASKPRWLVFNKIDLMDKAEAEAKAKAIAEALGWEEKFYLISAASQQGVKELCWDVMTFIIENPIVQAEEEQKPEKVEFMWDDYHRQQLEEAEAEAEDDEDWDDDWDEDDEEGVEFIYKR

Turning to `CNc1ccccc1C(=O)O[C@H]1[C@@H](O)[C@H](n2cnc3c(=O)[nH]c(N)nc32)O[C@@H]1COP(=O)(O)OP(=O)(O)OP(=O)(O)O` [mant-GTP], the “fold increase in RFU” value in experiment [1] (setting [3]) is listed as ~ 1.8 fold. The “increase in RFU” value in experiment [2] (setting [3]) was “Assessment of mant-nucleotides binding by wild type (ObgGC) and mutated (*ObgGC)”.

In the case of `CNc1ccccc1C(=O)O[C@H]1[C@@H](O)[C@H](n2cnc3c(=O)[nH]c(N)nc32)O[C@@H]1COP(=O)(O)OP(=O)(O)O` [mant-GDP], in experiment [1] (0.3 μM mant-GDP, 37 °C), the “fold increase in RFU” value is on record as ~ 1.3 fold. The “increase in RFU” value in experiment [2] (0.3 μM mant-GDP, no MgCl2, 37 °C) was “Assessment of mant-nucleotides binding by wild type (ObgGC) and mutated (*ObgGC)”.

For the origin of these results see article PMC4743925, “Targeting an Essential GTPase Obg for the Development of Broad-Spectrum Antibiotics” (PLoS ONE, 2016).
